Results from PubChem BioAssay AID2060497 (Molecular Pharmacology Branch, DTP, NCI, 2025).

System: 317291-083-R-J1-PDC complex spheroids, viability
Assay: Anticancer human tumor 317291-083-R-J1-PDC patient-derived soft tissue sarcoma cell line growth inhibition [GQUAD]
Conditions: for IC50: curve of first compound; for viability, T/C: stronger effect = lower value
Outline: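 Tumor cells were grown as complex spheroids with HUVEC endothelial cells and mesenchymal stem cells as stroma. G-quadruplex stabilizers were combined with targeted agents over half-log dilutions from near the clinical Cmax, or from 10 microM.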

[1] = second compound 0.0316 µM, first compound 0.0316 µM
[2] = second compound 0.0316 µM, first compound 0.1 µM
[3] = second compound 0.0316 µM, first compound 0.316 µM
[4] = second compound 0.0316 µM, first compound 1 µM
[5] = second compound 0.0316 µM, first compound 3.16 µM
[6] = second compound 0.0316 µM, first compound 10 µM
[7] = second compound 0.1 µM, first compound 0.0316 µM
[8] = second compound 0.1 µM, first compound 0.1 µM
[9] = second compound 0.1 µM, first compound 0.316 µM
[10] = second compound 0.1 µM, first compound 1 µM
[11] = second compound 0.1 µM, first compound 3.16 µM
[12] = second compound 0.1 µM, first compound 10 µM
[13] = second compound 0.316 µM, first compound 0.0316 µM
[14] = second compound 0.316 µM, first compound 0.1 µM
[15] = second compound 0.316 µM, first compound 0.316 µM
[16] = second compound 0.316 µM, first compound 1 µM
[17] = second compound 0.316 µM, first compound 3.16 µM
[18] = second compound 0.316 µM, first compound 10 µM
[19] = second compound 1 µM, first compound 0.0316 µM
[20] = second compound 1 µM, first compound 0.1 µM
[21] = second compound 1 µM, first compound 0.316 µM
[22] = second compound 1 µM, first compound 1 µM
[23] = second compound 1 µM, first compound 3.16 µM
[24] = second compound 1 µM, first compound 10 µM
[25] = second compound 3.16 µM, first compound 0.0316 µM
[26] = second compound 3.16 µM, first compound 0.1 µM
[27] = second compound 3.16 µM, first compound 0.316 µM
[28] = second compound 3.16 µM, first compound 1 µM
[29] = second compound 3.16 µM, first compound 3.16 µM
[30] = second compound 3.16 µM, first compound 10 µM
[31] = second compound 10 µM, first compound 0.0316 µM
[32] = second compound 10 µM, first compound 0.1 µM
[33] = second compound 10 µM, first compound 0.316 µM
[34] = second compound 10 µM, first compound 1 µM
[35] = second compound 10 µM, first compound 3.16 µM
[36] = second compound 10 µM, first compound 10 µM
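Note: spheroids exposed to compounds for one week before readout.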
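Throughout, for viability, T/C: percent viability relative to DMSO vehicle wells taken as 100%.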

CC1COCCN1c1cc(C2(S(C)(=N)=O)CC2)nc(-c2ccnc3[nH]ccc23)n1 (stereo unspecified) + Cc1[nH]c2ccc(F)cc2c1-c1nc2c3cccnc3c3ncccc3c2[nH]1
IC50 (second compound 0.0316 µM): 1530 nM
IC50 (second compound 0.1 µM): 1320 nM
IC50 (second compound 0.316 µM): 1350 nM
IC50 (second compound 1 µM): 1210 nM
IC50 (second compound 3.16 µM): 792 nM
IC50 (second compound 10 µM): 613 nM
viability, T/C [1]: 109%
viability, T/C [2]: 112%
viability, T/C [3]: 90.5%
viability, T/C [4]: 64%
viability, T/C [5]: 27.9%
viability, T/C [6]: 15.4%
viability, T/C [7]: 93.3%
viability, T/C [8]: 93.9%
viability, T/C [9]: 85.8%
viability, T/C [10]: 57.7%
viability, T/C [11]: 25.2%
viability, T/C [12]: 13.2%
viability, T/C [13]: 91.5%
viability, T/C [14]: 98.6%
viability, T/C [15]: 88.7%
viability, T/C [16]: 59%
viability, T/C [17]: 24.3%
viability, T/C [18]: 14.7%
viability, T/C [19]: 101%
viability, T/C [20]: 97.5%
viability, T/C [21]: 97.3%
viability, T/C [22]: 54.8%
viability, T/C [23]: 22.1%
viability, T/C [24]: 11.3%
viability, T/C [25]: 84%
viability, T/C [26]: 82.8%
viability, T/C [27]: 78%
viability, T/C [28]: 42.5%
viability, T/C [29]: 17.7%
viability, T/C [30]: 11%
viability, T/C [31]: 53%
viability, T/C [32]: 61.5%
viability, T/C [33]: 86.4%
viability, T/C [34]: 37.4%
viability, T/C [35]: 16.8%
viability, T/C [36]: 8.56%

Cc1cccc(N(C)C(=O)C2C(O)CCN2c2nc(C)cc(C(F)(F)F)c2C#N)c1 (stereo unspecified) + Cc1[nH]c2ccc(F)cc2c1-c1nc2c3cccnc3c3ncccc3c2[nH]1
IC50 (second compound 0.0316 µM): > 10000 nM
IC50 (second compound 0.1 µM): > 10000 nM
IC50 (second compound 0.316 µM): > 10000 nM
IC50 (second compound 1 µM): > 10000 nM
IC50 (second compound 3.16 µM): > 10000 nM
IC50 (second compound 10 µM): > 10000 nM
viability, T/C [1]: 112%
viability, T/C [2]: 113%
viability, T/C [3]: 105%
viability, T/C [4]: 120%
viability, T/C [5]: 100%
viability, T/C [6]: 91.9%
viability, T/C [7]: 117%
viability, T/C [8]: 95.1%
viability, T/C [9]: 118%
viability, T/C [10]: 104%
viability, T/C [11]: 121%
viability, T/C [12]: 87.7%
viability, T/C [13]: 102%
viability, T/C [14]: 111%
viability, T/C [15]: 102%
viability, T/C [16]: 113%
viability, T/C [17]: 121%
viability, T/C [18]: 93.4%
viability, T/C [19]: 126%
viability, T/C [20]: 112%
viability, T/C [21]: 121%
viability, T/C [22]: 111%
viability, T/C [23]: 102%
viability, T/C [24]: 86.7%
viability, T/C [25]: 111%
viability, T/C [26]: 113%
viability, T/C [27]: 107%
viability, T/C [28]: 110%
viability, T/C [29]: 111%
viability, T/C [30]: 69%
viability, T/C [31]: 95.1%
viability, T/C [32]: 89.6%
viability, T/C [33]: 101%
viability, T/C [34]: 104%
viability, T/C [35]: 92.5%
viability, T/C [36]: 108%

COc1cccc2c1C(=O)c1c(O)c3c(c(O)c1C2=O)CC(O)(C(=O)CO)CC3OC1CC(N)C(O)C(C)O1 (stereo unspecified) + CN(C)c1ccc(Nc2c3ccc(NC(=O)CCN4CCCC4)cc3nc3cc(NC(=O)CCN4CCCC4)ccc23)cc1
IC50 (second compound 0.0316 µM): 71.7 nM
IC50 (second compound 0.1 µM): 65.3 nM
IC50 (second compound 0.316 µM): 57.4 nM
IC50 (second compound 1 µM): < 31.6 nM
IC50 (second compound 3.16 µM): < 31.6 nM
IC50 (second compound 10 µM): < 31.6 nM
viability, T/C [1]: 82.7%
viability, T/C [2]: 32.4%
viability, T/C [3]: 21.1%
viability, T/C [4]: 13.2%
viability, T/C [5]: 0.97%
viability, T/C [6]: 0.41%
viability, T/C [7]: 64.1%
viability, T/C [8]: 41.8%
viability, T/C [9]: 22.2%
viability, T/C [10]: 12.1%
viability, T/C [11]: 1.05%
viability, T/C [12]: 0.35%
viability, T/C [13]: 64.2%
viability, T/C [14]: 35.1%
viability, T/C [15]: 23.6%
viability, T/C [16]: 8.77%
viability, T/C [17]: 1.59%
viability, T/C [18]: 0.73%
viability, T/C [19]: 29.1%
viability, T/C [20]: 18.6%
viability, T/C [21]: 14.9%
viability, T/C [22]: 3.06%
viability, T/C [23]: 0.9%
viability, T/C [24]: 0.65%
viability, T/C [25]: 28.8%
viability, T/C [26]: 15.1%
viability, T/C [27]: 12.1%
viability, T/C [28]: 4.09%
viability, T/C [29]: 0.51%
viability, T/C [30]: 0.86%
viability, T/C [31]: 9.63%
viability, T/C [32]: 7.93%
viability, T/C [33]: 3.54%
viability, T/C [34]: 1.41%
viability, T/C [35]: 1.22%
viability, T/C [36]: 0.51%
